According to publication PMC10861852, “Loss of activation by GABA in vertebrate delta ionotropic glutamate receptors” (Proceedings of the National Academy of Sciences of the …, 2024):

Experiments:
AcaGluD^Rat^NTDlink = experiment: Two-electrode voltage clamp, ligand-gated currents in chimera-expressing oocytes; conditions: relative ligand-gated current amplitude, n = 3
Excerpt: (§1) To answer this, we measured ligand-gated currents in two chimeric AcaGluD constructs in which the NTD was replaced with that of RatGluD2: one retaining the NTD-LBD linker of AcaGluD, “AcaGluD^Rat^NTD”; and the other with the NTD-LBD linker of RatGluD2, “AcaGluD^Rat^NTDlink” (Fig. 4 A and B and SI Appendix, Supporting text).

AcaGluD^Rat^NTD = experiment: as above; conditions: relative ligand-gated current amplitude, n = 3
Excerpt: as §1

RatGluD2^Lc^-10x = biological target: T1, RatGluD2^Lc^-10x (Rattus norvegicus, UniProt Q63226, A654T/A686S/D753Q/K694R/N720P/N763K/P806D/Q786M/R787V/S544G/Y613F); experiment: Two-electrode voltage clamp, responses to ligands in mutant-expressing oocytes; type: cell-based; conditions: ligands 30 mM
T1 construct: expressed in transfected cells; host or cells: Xenopus laevis oocytes injected with mRNA

AcaGluD = biological target: T2, AcaGluD (Acanthaster planci, UniProt A0A8B7XXR5); experiment: Two-electrode voltage clamp, ligand-gated currents in oocytes; type: cell-based
T2 sequence (A0A8B7XXR5 24-958): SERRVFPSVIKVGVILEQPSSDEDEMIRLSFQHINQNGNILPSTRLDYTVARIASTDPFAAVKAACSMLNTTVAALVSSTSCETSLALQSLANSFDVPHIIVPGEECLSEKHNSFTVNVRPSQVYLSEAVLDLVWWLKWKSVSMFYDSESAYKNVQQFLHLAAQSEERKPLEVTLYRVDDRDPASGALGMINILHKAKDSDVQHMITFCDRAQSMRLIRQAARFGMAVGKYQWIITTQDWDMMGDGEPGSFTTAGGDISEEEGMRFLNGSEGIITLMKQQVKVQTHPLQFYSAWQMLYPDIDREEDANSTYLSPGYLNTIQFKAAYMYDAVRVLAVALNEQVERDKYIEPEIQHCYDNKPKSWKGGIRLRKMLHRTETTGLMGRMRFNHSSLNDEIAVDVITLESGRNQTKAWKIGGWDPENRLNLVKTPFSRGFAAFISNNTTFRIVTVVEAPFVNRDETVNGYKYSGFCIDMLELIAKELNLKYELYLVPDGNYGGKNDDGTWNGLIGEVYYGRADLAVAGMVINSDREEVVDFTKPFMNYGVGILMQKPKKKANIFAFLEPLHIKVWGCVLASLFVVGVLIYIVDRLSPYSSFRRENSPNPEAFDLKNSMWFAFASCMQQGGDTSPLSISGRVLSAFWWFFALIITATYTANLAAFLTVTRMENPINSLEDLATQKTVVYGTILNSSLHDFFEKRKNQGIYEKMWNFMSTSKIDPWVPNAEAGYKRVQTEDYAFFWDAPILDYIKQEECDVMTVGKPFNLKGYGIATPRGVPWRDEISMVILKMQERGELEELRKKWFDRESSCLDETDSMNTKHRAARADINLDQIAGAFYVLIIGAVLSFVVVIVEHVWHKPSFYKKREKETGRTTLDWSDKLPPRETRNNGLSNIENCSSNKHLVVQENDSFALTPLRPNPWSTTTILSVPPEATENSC

K782N mutant AcaGluD = experiment: Two-electrode voltage clamp, ligand-gated currents in mutant-expressing oocytes
Excerpt: (§2) As the long CTD is implicated little in channel gating and more in expression and trafficking of iGluRs ([3]), we excluded it from this analysis. […] (Two of the mutants incorporated substitutions of two adjacent residues for efficiency.)

V806R mutant AcaGluD = experiment: as above
Excerpt: as §2

RatGluD1^AC = biological target: T3, RatGluD1^AC (Rattus norvegicus, UniProt Q62640, A654C); experiment: Two-electrode voltage clamp, inhibition of constitutive current in oocytes; type: cell-based; conditions: A654C mutant receptor, n = 10
T3 construct: expressed in transfected cells; host or cells: Xenopus laevis oocytes injected with mRNA

Q772D mutant AcaGluD = experiment: Two-electrode voltage clamp, ligand-gated currents in mutant-expressing oocytes
Excerpt: as §2

DioGluD = experiment: Two-electrode voltage clamp, ligand-gated currents in oocytes; type: cell-based, Diopisthoporus longitubus; conditions: wild-type
M805Q mutant AcaGluD = experiment: Two-electrode voltage clamp, ligand-gated currents in mutant-expressing oocytes
Excerpt: as §2

RatGluD2^Lc^-9x = biological target: T4, RatGluD2^Lc^-9x (Rattus norvegicus, UniProt Q63226, A654T/A686S/D753Q/K694R/N720P/N763K/P806D/Q786M/R787V/Y613F); experiment: Two-electrode voltage clamp, responses to ligands in mutant-expressing oocytes; type: cell-based; conditions: ligands 30 mM; receptor inactive at rest
T4 construct: expressed in transfected cells; host or cells: Xenopus laevis oocytes injected with mRNA
T4 sequence (Q63226 24-1007 Y613F/A654T/A686S/K694R/N720P/D753Q/N763K/Q786M/R787V/P806D): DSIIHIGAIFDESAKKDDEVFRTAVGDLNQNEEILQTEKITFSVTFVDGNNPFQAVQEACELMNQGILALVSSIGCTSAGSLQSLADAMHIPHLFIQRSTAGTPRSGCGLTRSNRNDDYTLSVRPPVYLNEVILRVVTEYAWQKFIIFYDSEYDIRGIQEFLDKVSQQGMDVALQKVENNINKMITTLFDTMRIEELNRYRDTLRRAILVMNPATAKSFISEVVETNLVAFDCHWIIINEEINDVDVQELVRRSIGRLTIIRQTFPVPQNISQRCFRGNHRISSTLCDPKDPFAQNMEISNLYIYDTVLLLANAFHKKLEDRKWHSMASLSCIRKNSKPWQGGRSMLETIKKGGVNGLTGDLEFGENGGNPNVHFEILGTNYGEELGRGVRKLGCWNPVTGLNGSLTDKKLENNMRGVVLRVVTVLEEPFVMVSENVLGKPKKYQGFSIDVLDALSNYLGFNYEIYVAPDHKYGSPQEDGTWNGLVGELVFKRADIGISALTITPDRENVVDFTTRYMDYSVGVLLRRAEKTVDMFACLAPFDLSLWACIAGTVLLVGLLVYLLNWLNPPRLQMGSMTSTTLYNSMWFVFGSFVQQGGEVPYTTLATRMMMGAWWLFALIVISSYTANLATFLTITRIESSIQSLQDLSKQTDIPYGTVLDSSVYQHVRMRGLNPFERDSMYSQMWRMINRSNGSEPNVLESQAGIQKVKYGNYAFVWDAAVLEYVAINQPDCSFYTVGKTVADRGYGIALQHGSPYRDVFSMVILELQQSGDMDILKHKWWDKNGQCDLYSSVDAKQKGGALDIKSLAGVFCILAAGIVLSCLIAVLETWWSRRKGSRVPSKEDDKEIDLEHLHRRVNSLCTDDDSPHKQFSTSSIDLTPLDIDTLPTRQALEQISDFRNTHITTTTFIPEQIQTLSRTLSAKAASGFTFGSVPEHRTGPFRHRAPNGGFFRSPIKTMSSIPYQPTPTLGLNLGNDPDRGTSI

T1 sequence (Q63226 24-1007 S544G/Y613F/A654T/A686S/K694R/N720P/D753Q/N763K/Q786M/R787V/P806D): as the sequence (Q63226 24-1007 Y613F/A654T/A686S/K694R/N720P/D753Q/N763K/Q786M/R787V/P806D) above, with S521G counted along it
T3 sequence (Q62640 21-1009 A654C): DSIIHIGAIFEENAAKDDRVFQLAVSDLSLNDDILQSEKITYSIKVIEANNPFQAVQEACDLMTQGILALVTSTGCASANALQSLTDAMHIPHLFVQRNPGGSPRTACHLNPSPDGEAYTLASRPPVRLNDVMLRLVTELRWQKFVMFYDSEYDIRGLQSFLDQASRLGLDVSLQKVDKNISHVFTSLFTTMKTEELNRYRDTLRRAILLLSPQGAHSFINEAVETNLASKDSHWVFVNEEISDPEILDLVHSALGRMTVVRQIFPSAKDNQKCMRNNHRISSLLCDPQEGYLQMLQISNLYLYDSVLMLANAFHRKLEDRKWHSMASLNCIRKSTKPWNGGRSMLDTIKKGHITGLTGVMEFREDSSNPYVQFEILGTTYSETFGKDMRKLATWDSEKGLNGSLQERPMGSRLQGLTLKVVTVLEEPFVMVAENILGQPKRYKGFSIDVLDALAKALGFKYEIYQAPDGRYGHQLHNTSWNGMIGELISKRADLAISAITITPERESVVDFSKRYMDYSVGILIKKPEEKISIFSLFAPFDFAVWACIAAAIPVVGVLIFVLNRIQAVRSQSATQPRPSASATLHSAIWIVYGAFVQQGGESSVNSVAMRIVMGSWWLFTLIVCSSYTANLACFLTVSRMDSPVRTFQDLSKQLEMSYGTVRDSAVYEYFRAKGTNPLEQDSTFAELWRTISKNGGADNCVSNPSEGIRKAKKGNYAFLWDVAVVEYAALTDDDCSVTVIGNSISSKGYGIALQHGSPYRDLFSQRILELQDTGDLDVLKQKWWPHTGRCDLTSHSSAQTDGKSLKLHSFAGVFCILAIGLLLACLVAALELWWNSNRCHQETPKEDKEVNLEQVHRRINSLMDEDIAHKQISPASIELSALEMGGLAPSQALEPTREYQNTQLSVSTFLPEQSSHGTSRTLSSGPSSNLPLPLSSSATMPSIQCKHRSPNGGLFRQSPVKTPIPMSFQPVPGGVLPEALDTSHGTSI

SMILES: N[C@H](CO)C(=O)O [D-serine]
- relative efficacy (AcaGluD^Rat^NTDlink): 20 ± 3%
- relative efficacy (AcaGluD^Rat^NTD): 5 ± 1%
- current response to ligand (RatGluD2^Lc^-10x): showed inward currents
- relative efficacy (AcaGluD; WT, relative ligand-gated current amplitude, n = 7): 12 ± 3%

SMILES: NCCCC(=O)O [GABA, γ-aminobutyric acid]
- maximum GABA-gated current amplitude (K782N mutant AcaGluD): less than 1 μA
- maximum GABA-gated current amplitude (V806R mutant AcaGluD): less than 1 μA
- inactivation of constitutive current relative to D-serine (RatGluD1^AC): 86 ± 5%
- maximum GABA-gated current amplitude (Q772D mutant AcaGluD): less than 1 μA
- ligand-elicited currents (DioGluD): the only ligand that elicited currents
- maximum GABA-gated current amplitude (M805Q mutant AcaGluD): less than 1 μA
- EC50 (AcaGluD; 0 Ca2+, n = 5): 5 ± 0.6 µM
- maximum GABA-gated current amplitude (AcaGluD; WT, mutant comparison (Fig. 5B), n = 4): 8.2 ± 1.1 μA
- maximum ligand-gated current amplitude (AcaGluD; in the presence of 1.8 mM Ca2+): 6.0 ± 1.0 µA
- EC50 (AcaGluD; ligand-gated current, 1.8 mM Ca2+ (regular bath solution), n = 5): 13 ± 3 µM
- maximum ligand-gated current amplitude (AcaGluD; nominally Ca2+-free solutions): 0.42 ± 0.13 µA

SMILES: NCC(=O)O [glycine]
- current response to ligand (RatGluD2^Lc^-9x): conducted inward currents
- current response to ligand (RatGluD2^Lc^-10x): showed inward currents
- EC50 (AcaGluD; 0 Ca2+, n = 4): 2000 ± 100 µM
- maximum ligand-gated current amplitude (AcaGluD; in the presence of 1.8 mM Ca2+): 0.33 ± 0.01 µA
- EC50 (AcaGluD; ligand-gated current, 1.8 mM Ca2+ (regular bath solution)): 2000 ± 100 µM
- maximum ligand-gated current amplitude (AcaGluD; nominally Ca2+-free solutions): 0.08 ± 0.01 µA
